Laboratory results from patent US20080031868A1, “HUMAN LYSOZYME MEDICINE, ITS MANUFACTURING METHOD AND APPLICATION THEREOF” (priority 2005, published 2008).
≈ marks a conversion by molar mass, not a printed value.

Legend:
[1] = system: No. 04 Coronavirus; test: Inhibition on No. 04 Coronavirus in HELA cells (CPE method); format: cell-based; conditions: 2 h
Procedure: HELA cells were seeded on 96-well cultivation plates at the concentration of 400,000/ml and grown to monolayer at 37° C. in 5% CO2 incubator for 24 hours. After removal of cultivation liquid, coronavirus liquid were added to HELA cells and absorbed at 37° C. in 5% CO2 incubator for 2 hours. […] At the same time reference cells and reference virous were cultivated at 37° C. in 5% CO2 incubator for 5 to 7 days. Inverted microscope was used everyday to observe the cytopathic effect (CPE) of virus. The determination were ended according to the appearance of “+++-++++”. […] The determination was repeated three times.

[2] = system: HELA cell; test: Toxicity to HELA cell (CPE, Reed-Muench); conditions: 6 days
Procedure: 1. Determination of the Toxicity of Recombinant Human Lysozyme to HELA Cell:
HELA cells were seeded on 96-well culture plates at the concentration of 400,000/mi and grown at 37° C. in a 5% CO2 incubator for 2 hours. 100 μl recombinant human lysozyme which were double-diluted from 6000 ug/ml to 11.7 ug/ml and positive reference medicine which were double-diluted from 6000 ug/ml to 11.7 ug/ml were respectively added to 3 wells per concentration. At the same time the reference cells were cultivated at 37° C. in a 5% CO2 incubator for 6 days. Inverted microscope was used everyday to observe the cytopathic effect (CPE). The cytopathic effect under 25% was recorded as “+”, the cytopathic effect under 26%˜50% was recorded as “++”, the cytopathic effect under 51%˜75% was recorded as “+++” and the cytopathic effect under 76%˜100% was recorded as “++++”. Drug median toxic dose (TD50) and minimum toxic dose (TD0) were calculated by using Reed-Muench method.

[3] = system: No. 04 Coronavirus; test: organism not typed; format: cell-based
Procedure: HELA cells were seeded on 96-well cultivation plates at the concentration of 400,000/ml and grown to monolayer at 37° C. in 5% CO2 incubator for 24 hours. […] Then 100 TCID50coronavirus liquid were added to HELA cells. At the same time reference cell and reference virous were cultivated at 37° C. in 5% CO2 incubator for 5 to 7 days. At the same time normal cell reference and virous reference were cultivated at 37° C. in 5% CO2 incubator for 5 to 7 days. Inverted microscope was used everyday to observe the cytopathic effect (CPE) of virus. The determination were ended according to the appearance of “+++-++++”. […] The determination was repeated three times.

[4] = read-out: minimum inhibitory concentration (MIC)
[5] = HeLa, read-out: median inhibitory concentration (IC50)

Structure (SMILES): Nc1nc(O)c2ncn(COC(CO)CO)c2n1 [Ganciclovir, reference compound]
- MIC [1, 4]: 23.4 mg/L (≈ 91.8 µM)
- IC50 [1, 5]: 11.7 mg/L (≈ 45.8 µM)
- minimum toxic dose (TD0) ([2]; HELA cells, CPE, Reed-Muench): 6000 ± 0 µg/mL
- median toxic dose (TD50) ([2]; human): 6000 ± 0 µg/mL
- IC50 [3, 5]: 11.7 mg/L (≈ 45.8 µM)
- MIC [3, 4]: 23.4 mg/L (≈ 91.8 µM)
